Results as given in publication PMC4263427 (Biochemistry, 2014).

Biological target: T1, class II fructose 1,6-bisphosphate aldolase (SaFBA) (Staphylococcus aureus, UniProt Q5HE75)
T1 sequence (Q5HE75 1-286): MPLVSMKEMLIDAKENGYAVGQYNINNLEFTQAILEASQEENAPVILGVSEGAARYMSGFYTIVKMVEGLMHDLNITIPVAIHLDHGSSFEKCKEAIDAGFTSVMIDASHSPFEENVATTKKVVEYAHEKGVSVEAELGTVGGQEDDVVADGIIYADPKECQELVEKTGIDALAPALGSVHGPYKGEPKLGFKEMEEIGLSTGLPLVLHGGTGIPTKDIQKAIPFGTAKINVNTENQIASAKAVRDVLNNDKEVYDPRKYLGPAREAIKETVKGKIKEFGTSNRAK
Assay: coupled fluorescence
Type: biochemical

Ki: 96 ± 22 µM
Structure (SMILES): O=C(O)c1ccc2cccc(O)c2n1 [HCA, 8-hydroxyquinoline-2-carboxylic acid]
